# Measured values from patent US11713338B2, “Cyclic peptides multimers targeting α-4-β-7 integrin” (priority 2016, dated 2023).
# Assays:
# [1] = molecular target: T1, recombinant integrin α4β7 (Homo sapiens, UniProt P13612+P26010, DEL724-798); assay: Integrin α4β7—MAdCAM-1 ELISA competition assay; type: binding; conditions: for ELISA Assay Ratio b1/b7: ratio of a4b1 to a4b7 ELISA IC50; for IC50: read-out: ELISA a4b7 Assay IC50
# T1 construct: purchased R&D Systems 5397-A3-050
# T1 sequence (P13612 34-970 limits assumed): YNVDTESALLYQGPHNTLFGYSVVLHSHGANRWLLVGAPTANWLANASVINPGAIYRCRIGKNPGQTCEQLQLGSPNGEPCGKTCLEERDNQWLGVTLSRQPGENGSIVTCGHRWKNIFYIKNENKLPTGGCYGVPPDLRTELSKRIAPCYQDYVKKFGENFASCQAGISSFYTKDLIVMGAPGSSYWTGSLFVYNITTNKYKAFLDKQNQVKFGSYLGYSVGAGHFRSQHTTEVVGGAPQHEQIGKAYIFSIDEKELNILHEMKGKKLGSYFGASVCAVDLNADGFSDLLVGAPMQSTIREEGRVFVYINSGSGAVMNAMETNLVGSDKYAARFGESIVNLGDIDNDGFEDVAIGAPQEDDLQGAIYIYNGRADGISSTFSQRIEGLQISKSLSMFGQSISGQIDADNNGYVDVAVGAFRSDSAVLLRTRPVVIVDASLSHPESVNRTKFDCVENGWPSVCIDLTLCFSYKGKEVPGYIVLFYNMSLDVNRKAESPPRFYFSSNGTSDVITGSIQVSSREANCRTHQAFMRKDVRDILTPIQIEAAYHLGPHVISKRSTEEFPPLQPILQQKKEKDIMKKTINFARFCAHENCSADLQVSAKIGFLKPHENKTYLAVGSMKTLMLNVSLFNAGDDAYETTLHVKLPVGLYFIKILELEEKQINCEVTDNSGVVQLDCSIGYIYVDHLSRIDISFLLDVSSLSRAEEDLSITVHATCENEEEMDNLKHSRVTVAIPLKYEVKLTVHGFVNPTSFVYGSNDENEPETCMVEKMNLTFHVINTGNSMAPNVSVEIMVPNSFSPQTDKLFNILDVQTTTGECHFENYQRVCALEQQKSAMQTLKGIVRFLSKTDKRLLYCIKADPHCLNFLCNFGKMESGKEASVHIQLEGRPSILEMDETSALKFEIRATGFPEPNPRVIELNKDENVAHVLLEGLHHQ
# T1 sequence (P26010 20-723 limits assumed): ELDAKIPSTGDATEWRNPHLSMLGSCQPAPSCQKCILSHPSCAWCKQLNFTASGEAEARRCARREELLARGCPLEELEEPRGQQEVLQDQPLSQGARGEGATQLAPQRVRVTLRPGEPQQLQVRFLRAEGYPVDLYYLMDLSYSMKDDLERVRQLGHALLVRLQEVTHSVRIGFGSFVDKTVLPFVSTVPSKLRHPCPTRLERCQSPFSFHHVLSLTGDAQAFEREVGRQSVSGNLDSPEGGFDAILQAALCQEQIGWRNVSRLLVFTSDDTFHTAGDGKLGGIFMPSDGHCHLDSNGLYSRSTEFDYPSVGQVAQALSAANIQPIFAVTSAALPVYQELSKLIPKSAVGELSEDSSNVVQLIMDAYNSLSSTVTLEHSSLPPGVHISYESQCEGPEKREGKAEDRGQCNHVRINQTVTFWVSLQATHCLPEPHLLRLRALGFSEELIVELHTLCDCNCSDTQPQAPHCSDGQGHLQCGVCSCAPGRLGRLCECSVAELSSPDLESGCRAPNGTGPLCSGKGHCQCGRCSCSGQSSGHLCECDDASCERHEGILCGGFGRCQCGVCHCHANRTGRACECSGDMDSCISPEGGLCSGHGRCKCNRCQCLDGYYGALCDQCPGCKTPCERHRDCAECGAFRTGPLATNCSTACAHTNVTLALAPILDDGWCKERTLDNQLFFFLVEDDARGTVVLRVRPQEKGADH
# [2] = molecular target: T2, recombinant integrin α4β1 (Homo sapiens, UniProt P05556+P13612); assay: Integrin α4β1—VCAM-1 competition ELISA; type: binding; conditions: read-out: ELISA a4b1 Assay IC50
# T2 construct: purchased R&D Systems 5397-A3-050
# In short: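 Detection of bound ligand used HRP-conjugated anti-human IgG Fc, 1 h with agitation at room temperature. This followed a 2 h room-temperature, 300 rpm equilibration of compound in the coated wells. Washes were done in 50 mM Tris, 100 mM NaCl, 1 mM MnCl2, 0.05% Tween.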
# T2 sequence (P05556 21-728 limits assumed, one chain of several): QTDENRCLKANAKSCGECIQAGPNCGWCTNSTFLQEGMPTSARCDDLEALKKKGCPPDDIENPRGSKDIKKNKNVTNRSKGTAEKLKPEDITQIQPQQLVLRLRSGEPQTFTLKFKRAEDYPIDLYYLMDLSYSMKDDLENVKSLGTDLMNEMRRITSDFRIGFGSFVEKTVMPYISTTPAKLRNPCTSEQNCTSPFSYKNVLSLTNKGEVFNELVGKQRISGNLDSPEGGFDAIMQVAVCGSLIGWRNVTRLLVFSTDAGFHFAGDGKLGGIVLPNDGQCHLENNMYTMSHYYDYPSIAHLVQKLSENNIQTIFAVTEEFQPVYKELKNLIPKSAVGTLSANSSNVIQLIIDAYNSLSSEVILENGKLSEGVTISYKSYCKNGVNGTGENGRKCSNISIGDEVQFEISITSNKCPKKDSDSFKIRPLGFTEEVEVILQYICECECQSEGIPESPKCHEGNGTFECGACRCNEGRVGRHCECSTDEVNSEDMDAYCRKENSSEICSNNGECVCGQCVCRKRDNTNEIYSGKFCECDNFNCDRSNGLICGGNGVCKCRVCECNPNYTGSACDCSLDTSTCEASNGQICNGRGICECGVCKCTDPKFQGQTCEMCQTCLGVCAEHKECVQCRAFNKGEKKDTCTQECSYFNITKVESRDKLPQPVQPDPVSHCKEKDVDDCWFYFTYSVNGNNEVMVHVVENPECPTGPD
Compound,ELISA Assay Ratio b1/b7 [1],IC50 [1] [nM],IC50 [2] [nM]
CC(C)C[C@@H]1NC(=O)CN(C)C(=O)[C@H](Cc2cccc3ccccc23)NC(=O)[C@@H]2CCCN2[C@H](C(=O)NC(C)(C)C)[C@H](C)NC(=O)[C@H]([C@@H](C)O)NC(=O)[C@H](CC(=O)O)NC1=O [Compound 117],8.7,158,1380
CC(C)C[C@@H]1NC(=O)[C@H](Cc2ccc(O)cc2)NC(=O)[C@@H]2CCCN2[C@H](C(=O)NC(C)(C)C)[C@H](C)NC(=O)[C@H](C(C)(C)S)NC(=O)[C@H](CC(=O)O)NC1=O [Compound 55],1.1,113,119
CC(C)C[C@@H]1NC(=O)[C@H](Cc2c[nH]cn2)NC(=O)[C@@H]2CCCN2[C@H](C(=O)NC(C)(C)C)[C@@H](CSc2ccccc2)NC(=O)[C@H](C(C)C)NC(=O)[C@H](CC(=O)O)NC1=O [Compound 2],1.697,–,185
CC(C)C[C@@H]1NC(=O)c2ccc(-c3ccccc3N3CCNCC3)c(c2)CNC(=O)[C@@H]2CCCN2[C@H](C(=O)NC(C)(C)C)[C@H](C)NC(=O)[C@H]([C@@H](C)O)NC(=O)[C@H](CC(=O)O)NC1=O [Compound 348],1.5,27,41
CC(C)C[C@@H]1NC(=O)[C@@H](CCCCN)NC(=O)[C@H](Cc2ccc(O)cc2)NC(=O)[C@@H]2CCCN2[C@H](C(=O)NC(C)(C)C)[C@H](C)NC(=O)[C@H]([C@@H](C)O)N(C)C(=O)[C@H](CC(=O)O)NC1=O [Compound 121],11.4,192,2190
CC(C)C[C@@H]1NC(=O)[C@@H](CCCN(C)C)NC(=O)[C@@H]2CCCN2[C@H](C(=O)NC(C)(C)C)[C@H](C)NC(=O)[C@H]([C@@H](C)O)NC(=O)[C@H](CC(=O)O)NC1=O [Compound 83],6.9,179,1230
C[C@@H]1NC(=O)[C@H]([C@@H](C)O)NC(=O)[C@H](CC(=O)O)NC(=O)[C@H](CC(C)(C)C)NC(=O)[C@H]2CCCCN2C(=O)[C@H](Cc2ccc(O)cc2)NC(=O)[C@@H]2CCCN2[C@@H]1C(=O)NC(C)(C)C [Compound 150],8.2,54,447
CC(C)C[C@@H]1NC(=O)c2cc(cc(-c3ccncc3)c2)CNC(=O)[C@@H]2CCCN2[C@H](C(=O)NC(C)(C)C)[C@H](C)NC(=O)[C@H]([C@@H](C)O)NC(=O)[C@H](CC(=O)O)NC1=O [Compound 362],5.6,43,238
CC(C)C[C@@H]1NC(=O)[C@H](Cc2ccc3ccccc3c2)NC(=O)[C@@H]2CCCN2[C@H](C(=O)NC(C)(C)C)[C@H](C)NC(=O)[C@H]([C@@H](C)O)NC(=O)[C@H](CC(=O)O)NC1=O [Compound 10],1.3,52,70
CC(C)C[C@@H]1NC(=O)C[C@H](CCCCN)NC(=O)[C@H](Cc2ccc(I)cc2)NC(=O)[C@@H]2CCCN2[C@H](C(=O)NC(C)(C)C)[C@H](C)NC(=O)[C@H]([C@@H](C)O)NC(=O)[C@H](CC(=O)O)NC1=O [Compound 260],58.1,165,9560
CC(C)C[C@@H]1NC(=O)C[C@H](CCCCN)NC(=O)[C@H](CC2CCCCC2)NC(=O)[C@@H]2CCCN2[C@H](C(=O)NC(C)(C)C)[C@H](C)NC(=O)[C@H]([C@@H](C)O)NC(=O)[C@H](CC(=O)O)NC1=O [Compound 210],16.0,72,1150
CC(C)C[C@@H]1NC(=O)[C@H]2CCCCN2C(=O)[C@H](Cc2ccc(-c3ccccc3)cc2)NC(=O)[C@@H]2CCCN2[C@H](C(=O)NC(C)(C)C)[C@H](C)NC(=O)[C@H]([C@@H](C)O)NC(=O)[C@H](CC(=O)O)NC1=O [Compound 138],5.0,24,118
